Test results: article PMC12136037, “Type II kinase inhibitors that target Parkinson’s disease–associated LRRK2” (Science Advances, 2025)

Key:
Assay in all cases: DSF 100 kinase selectivity screen;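 also: compound tested at 20 µM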
Assay type in all cases: binding
[1] = molecular target: T1, ~100 representative kinases (Homo sapiens, UniProt Q92630); conditions: Protein DYRK2; average of three replicates
T1 construct: Recombinant protein kinase domains with a concentration of 2 μM
T1 sequence (Q92630 1-601): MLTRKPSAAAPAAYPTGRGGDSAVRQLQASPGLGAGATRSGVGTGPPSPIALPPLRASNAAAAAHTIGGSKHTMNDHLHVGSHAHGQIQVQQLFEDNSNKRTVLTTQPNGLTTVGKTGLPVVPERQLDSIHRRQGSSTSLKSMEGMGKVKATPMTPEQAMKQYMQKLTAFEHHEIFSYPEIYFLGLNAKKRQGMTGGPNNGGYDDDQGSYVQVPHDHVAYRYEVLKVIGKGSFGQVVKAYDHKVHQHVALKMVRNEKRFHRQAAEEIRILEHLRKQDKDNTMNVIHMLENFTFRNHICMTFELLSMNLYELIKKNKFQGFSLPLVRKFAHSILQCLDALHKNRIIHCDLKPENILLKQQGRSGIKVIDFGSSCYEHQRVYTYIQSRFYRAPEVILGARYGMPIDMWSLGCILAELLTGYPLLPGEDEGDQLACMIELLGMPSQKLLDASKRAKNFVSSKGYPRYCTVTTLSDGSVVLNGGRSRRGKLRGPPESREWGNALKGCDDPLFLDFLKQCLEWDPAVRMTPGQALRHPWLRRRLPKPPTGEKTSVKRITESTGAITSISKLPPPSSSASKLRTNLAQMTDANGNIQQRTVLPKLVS
Procedure, shortened: (§1)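 Each kinase domain, at 2 μM, is mixed with 20 μM test compound and SYPRO Orange in Hepes (20 mM, pH 7.5) with 500 mM NaCl. Temperature is then raised at 3°C/min and fluorescence-monitored unfolding yields the melting temperature change, ΔTm in degrees Celsius.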

[2] = molecular target: T2, ~100 representative kinases (Homo sapiens, UniProt Q9Y6E0); conditions: protein MST3; average of three replicates
T2 construct: Recombinant protein kinase domains with a concentration of 2 μM
Procedure, shortened: as §1

[3] = molecular target: T3, ~100 representative kinases (Homo sapiens, UniProt P49841); conditions: protein GSK3B; average of three replicates
T3 construct: Recombinant protein kinase domains with a concentration of 2 μM
Procedure, shortened: as §1

[4] = molecular target: T4, ~100 representative kinases (Homo sapiens, UniProt Q13153); conditions: protein PAK1; average of three replicates
T4 construct: Recombinant protein kinase domains with a concentration of 2 μM
Procedure, shortened: as §1

[5] = molecular target: T5, ~100 representative kinases (Homo sapiens, UniProt Q9UEW8); conditions: Protein STK39; DSF; average of three replicates
T5 construct: Recombinant protein kinase domains with a concentration of 2 μM
Procedure, shortened: as §1

[6] = molecular target: T6, ~100 representative kinases (Homo sapiens, UniProt P24941); conditions: Protein CDK2; average of three replicates
T6 construct: Recombinant protein kinase domains with a concentration of 2 μM
Procedure, shortened: as §1

[7] = molecular target: T7, ~100 representative kinases (Homo sapiens, UniProt Q9Y243); conditions: Protein AKT3; average of three replicates
T7 construct: Recombinant protein kinase domains with a concentration of 2 μM
Procedure, shortened: as §1

[8] = molecular target: T8, ~100 representative kinases (Homo sapiens, UniProt Q99986); conditions: Protein VRK1; DSF; average of three replicates
T8 construct: Recombinant protein kinase domains with a concentration of 2 μM
T8 sequence (Q99986 1-396): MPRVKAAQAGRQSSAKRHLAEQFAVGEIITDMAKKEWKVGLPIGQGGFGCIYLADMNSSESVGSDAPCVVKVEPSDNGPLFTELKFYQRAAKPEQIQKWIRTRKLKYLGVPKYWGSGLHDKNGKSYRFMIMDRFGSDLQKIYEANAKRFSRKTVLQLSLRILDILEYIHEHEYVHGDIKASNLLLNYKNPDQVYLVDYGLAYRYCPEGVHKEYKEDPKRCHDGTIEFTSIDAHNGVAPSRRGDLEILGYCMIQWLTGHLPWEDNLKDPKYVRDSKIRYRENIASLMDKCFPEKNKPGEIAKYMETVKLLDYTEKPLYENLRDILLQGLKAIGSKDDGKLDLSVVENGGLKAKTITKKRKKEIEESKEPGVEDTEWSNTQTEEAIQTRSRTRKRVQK
Procedure, shortened: as §1

[9] = molecular target: T9, ~100 representative kinases (Homo sapiens, UniProt P27448); conditions: protein MARK3; average of three replicates
T9 construct: Recombinant protein kinase domains with a concentration of 2 μM
Procedure, shortened: as §1

[10] = molecular target: T10, ~100 representative kinases (Homo sapiens, UniProt P53779); conditions: protein MAPK10; average of three replicates
T10 construct: Recombinant protein kinase domains with a concentration of 2 μM
Procedure, shortened: as §1

[11] = molecular target: T11, ~100 representative kinases (Homo sapiens, UniProt P21675); conditions: Protein TAF1; DSF; average of three replicates
T11 construct: Recombinant protein kinase domains with a concentration of 2 μM
Procedure, shortened: as §1

T9 sequence (P27448 whole entry, the tested form may be a part): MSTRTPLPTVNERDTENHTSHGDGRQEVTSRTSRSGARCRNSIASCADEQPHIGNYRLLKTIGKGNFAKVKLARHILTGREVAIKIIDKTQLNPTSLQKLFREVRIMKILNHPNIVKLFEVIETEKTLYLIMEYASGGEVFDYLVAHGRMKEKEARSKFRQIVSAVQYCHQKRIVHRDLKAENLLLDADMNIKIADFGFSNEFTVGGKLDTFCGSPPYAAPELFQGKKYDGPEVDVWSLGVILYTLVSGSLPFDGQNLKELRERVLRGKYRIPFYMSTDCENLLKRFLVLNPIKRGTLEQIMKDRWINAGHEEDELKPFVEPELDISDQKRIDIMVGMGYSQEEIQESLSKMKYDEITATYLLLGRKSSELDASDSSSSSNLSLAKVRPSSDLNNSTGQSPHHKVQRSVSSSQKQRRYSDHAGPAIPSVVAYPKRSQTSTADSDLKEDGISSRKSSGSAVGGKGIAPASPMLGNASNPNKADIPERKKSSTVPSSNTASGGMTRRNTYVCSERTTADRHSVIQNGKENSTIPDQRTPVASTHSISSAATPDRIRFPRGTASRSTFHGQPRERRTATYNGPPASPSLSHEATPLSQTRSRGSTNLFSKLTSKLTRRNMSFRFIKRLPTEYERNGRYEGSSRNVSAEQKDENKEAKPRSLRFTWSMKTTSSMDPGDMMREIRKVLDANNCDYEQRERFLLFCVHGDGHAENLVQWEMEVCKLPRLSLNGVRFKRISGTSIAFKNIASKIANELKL
T4 sequence (Q13153 whole entry, the tested form may be a part): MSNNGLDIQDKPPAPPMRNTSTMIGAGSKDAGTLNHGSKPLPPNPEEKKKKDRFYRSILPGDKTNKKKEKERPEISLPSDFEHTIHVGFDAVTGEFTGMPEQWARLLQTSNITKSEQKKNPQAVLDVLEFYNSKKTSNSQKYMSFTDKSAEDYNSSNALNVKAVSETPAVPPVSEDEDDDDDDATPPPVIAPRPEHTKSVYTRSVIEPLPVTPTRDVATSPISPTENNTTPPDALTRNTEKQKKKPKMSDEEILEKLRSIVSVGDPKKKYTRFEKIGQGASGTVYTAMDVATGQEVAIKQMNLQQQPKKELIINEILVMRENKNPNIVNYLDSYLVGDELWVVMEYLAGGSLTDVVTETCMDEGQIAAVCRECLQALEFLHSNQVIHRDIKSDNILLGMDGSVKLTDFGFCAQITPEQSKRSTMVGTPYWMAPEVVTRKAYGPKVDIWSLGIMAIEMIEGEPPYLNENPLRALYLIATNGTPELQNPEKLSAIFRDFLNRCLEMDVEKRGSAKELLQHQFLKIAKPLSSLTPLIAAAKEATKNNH
T2 sequence (Q9Y6E0 whole entry, the tested form may be a part): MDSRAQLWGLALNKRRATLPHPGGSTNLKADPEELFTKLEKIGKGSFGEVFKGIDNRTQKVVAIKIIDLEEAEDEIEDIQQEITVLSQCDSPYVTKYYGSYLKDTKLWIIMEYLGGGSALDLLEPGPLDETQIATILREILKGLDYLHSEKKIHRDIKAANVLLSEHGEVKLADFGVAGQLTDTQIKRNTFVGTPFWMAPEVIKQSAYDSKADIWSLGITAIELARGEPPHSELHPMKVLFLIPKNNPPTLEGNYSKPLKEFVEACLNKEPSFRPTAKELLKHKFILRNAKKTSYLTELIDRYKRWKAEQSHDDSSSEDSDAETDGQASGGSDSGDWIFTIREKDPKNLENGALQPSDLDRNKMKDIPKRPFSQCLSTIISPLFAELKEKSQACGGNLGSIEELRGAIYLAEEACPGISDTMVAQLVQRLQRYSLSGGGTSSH
T3 sequence (P49841 whole entry, the tested form may be a part): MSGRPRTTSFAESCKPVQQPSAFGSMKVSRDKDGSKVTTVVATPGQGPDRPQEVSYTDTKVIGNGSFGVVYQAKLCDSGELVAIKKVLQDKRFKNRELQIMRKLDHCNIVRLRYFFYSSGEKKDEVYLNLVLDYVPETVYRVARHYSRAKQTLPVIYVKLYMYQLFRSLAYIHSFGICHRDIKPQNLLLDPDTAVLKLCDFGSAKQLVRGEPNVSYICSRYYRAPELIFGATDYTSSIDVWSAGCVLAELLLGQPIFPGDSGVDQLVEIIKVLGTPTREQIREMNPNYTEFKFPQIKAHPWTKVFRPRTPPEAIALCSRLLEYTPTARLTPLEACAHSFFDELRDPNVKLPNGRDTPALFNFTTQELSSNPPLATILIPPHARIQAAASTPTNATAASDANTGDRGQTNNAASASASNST
T7 sequence (Q9Y243 whole entry, the tested form may be a part): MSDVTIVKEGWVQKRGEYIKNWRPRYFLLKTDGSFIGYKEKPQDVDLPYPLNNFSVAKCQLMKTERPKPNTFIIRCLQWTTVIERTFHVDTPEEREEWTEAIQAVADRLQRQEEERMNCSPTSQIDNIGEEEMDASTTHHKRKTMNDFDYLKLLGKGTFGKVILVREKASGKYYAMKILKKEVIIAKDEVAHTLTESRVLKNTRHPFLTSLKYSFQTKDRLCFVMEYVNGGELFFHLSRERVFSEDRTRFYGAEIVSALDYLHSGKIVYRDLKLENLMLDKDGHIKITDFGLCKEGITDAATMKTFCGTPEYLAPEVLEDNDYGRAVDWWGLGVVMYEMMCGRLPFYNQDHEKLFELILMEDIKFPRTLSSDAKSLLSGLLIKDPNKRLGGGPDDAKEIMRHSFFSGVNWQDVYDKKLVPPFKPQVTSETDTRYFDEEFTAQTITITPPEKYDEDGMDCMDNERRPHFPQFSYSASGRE
T10 sequence (P53779 whole entry, the tested form may be a part): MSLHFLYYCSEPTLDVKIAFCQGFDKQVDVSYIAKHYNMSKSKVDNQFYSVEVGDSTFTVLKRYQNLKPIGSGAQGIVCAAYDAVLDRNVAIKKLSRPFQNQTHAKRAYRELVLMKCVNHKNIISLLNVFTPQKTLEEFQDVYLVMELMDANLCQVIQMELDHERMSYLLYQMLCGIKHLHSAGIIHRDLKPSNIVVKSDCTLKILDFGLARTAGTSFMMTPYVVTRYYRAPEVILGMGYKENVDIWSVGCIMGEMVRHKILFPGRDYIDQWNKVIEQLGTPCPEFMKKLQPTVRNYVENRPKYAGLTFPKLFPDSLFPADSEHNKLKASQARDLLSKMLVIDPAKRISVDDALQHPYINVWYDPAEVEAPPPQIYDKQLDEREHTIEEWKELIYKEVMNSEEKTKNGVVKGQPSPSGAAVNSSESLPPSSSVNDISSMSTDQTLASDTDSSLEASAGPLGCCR
T11 sequence (P21675 whole entry, the tested form may be a part): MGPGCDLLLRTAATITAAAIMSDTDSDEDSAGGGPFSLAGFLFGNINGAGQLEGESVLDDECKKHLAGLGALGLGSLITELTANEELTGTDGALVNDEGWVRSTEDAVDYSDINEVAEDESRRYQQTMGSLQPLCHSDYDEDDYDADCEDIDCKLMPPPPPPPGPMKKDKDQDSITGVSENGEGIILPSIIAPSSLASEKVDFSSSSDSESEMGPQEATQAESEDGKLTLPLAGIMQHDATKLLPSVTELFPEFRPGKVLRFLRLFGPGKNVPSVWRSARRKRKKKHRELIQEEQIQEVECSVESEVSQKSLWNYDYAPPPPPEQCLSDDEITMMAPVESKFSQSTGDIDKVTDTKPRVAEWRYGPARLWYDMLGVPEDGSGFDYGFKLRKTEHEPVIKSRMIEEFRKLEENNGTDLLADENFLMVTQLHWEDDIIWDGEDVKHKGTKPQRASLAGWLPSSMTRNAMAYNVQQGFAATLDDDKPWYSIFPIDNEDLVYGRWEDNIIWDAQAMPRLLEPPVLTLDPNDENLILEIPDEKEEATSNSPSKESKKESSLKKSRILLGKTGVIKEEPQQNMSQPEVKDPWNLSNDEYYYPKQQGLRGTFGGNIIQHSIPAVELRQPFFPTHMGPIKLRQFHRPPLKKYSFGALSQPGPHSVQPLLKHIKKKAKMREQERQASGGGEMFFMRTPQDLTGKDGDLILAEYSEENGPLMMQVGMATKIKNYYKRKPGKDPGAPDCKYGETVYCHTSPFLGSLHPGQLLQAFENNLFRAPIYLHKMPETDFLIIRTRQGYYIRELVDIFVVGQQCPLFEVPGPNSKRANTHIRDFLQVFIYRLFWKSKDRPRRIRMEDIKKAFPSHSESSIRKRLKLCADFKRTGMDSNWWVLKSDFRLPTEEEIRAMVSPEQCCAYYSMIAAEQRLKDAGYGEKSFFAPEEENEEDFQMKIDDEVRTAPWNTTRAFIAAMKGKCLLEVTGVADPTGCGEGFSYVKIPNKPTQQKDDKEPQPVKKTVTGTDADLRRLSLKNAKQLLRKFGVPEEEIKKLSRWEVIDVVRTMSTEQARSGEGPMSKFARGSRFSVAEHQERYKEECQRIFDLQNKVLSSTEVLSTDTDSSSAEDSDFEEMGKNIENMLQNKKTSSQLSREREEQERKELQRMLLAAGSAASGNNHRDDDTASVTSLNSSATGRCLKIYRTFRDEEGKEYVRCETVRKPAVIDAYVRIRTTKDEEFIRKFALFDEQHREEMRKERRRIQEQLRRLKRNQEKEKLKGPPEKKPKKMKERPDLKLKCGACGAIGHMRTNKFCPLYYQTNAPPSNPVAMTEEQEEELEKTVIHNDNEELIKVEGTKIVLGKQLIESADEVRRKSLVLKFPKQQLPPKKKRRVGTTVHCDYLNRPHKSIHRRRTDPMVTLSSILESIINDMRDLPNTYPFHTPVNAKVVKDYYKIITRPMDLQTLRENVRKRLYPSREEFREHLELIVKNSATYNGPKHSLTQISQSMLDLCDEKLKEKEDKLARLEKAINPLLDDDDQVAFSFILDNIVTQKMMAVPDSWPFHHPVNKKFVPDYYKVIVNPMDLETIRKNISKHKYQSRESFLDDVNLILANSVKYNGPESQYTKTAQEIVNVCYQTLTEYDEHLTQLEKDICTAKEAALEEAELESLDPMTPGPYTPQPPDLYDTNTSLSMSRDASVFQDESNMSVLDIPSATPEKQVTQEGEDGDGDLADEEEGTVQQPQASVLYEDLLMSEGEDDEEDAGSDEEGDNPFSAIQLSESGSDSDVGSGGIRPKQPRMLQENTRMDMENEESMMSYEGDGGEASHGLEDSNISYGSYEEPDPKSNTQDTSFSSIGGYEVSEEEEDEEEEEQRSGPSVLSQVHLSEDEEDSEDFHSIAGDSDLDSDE

SMILES | dTm [1] [K] | dTm [2] [K] | dTm [3] [K] | dTm [4] [K] | dTm [5] [K] | dTm [6] [K] | dTm [7] [K] | dTm [8] [K] | dTm [9] [K] | dTm [10] [K] | dTm [11] [K]
Cc1ccc(C(=O)Nc2ccc(CN3CCN(C)CC3)c(C(F)(F)F)c2)cc1C#Cc1c[nH]c2ncnc(N3CCOCC3)c12 [Compound 1] | 3.91 | 3.57 | 1.72 | 1.52 | 3.69 | 3.53 | -0.0373 | -0.0464 | 1.49 | 4.55 | 0.36
O=C(Nc1ccc(F)cc1)C1(C(=O)Nc2cccc(-c3c[nH]c4ncnc(N5CCOCC5)c34)c2)CC1 [Compound 2] | 7.92 | 7.19 | 6.47 | 2.06 | 1.95 | 4.78 | 0.65 | 0.75 | 4.79 | -0.56 | 0.23
O=C(Nc1cccc(-c2c[nH]c3ncnc(N4CCOCC4)c23)c1)c1cccn(-c2ccc(F)cc2)c1=O [Compound 4] | 6.24 | 3.28 | 5.10 | 4.33 | 4.19 | 7.66 | -0.17 | 1.12 | 4.45 | 7.48 | -0.36
Cc1cc(NC(=O)C2(C(=O)Nc3ccc(F)cc3)CC2)cc(-c2c[nH]c3ncnc(N4CCOCC4)c23)c1 [Compound 6] | 5.04 | -0.29 | 3.83 | 1.55 | 1.36 | 2.92 | -0.13 | 0.70 | 4.35 | 2.20 | 0.30
O=C(Nc1cccc(-c2c[nH]c3ncnc(N4CCOCC4)c23)c1)C1(C(=O)Nc2cccc3c2CCC3)CC1 [Compound 11] | 4.30 | -2.04 | 8.12 | 3.04 | 1.05 | 4.66 | -0.39 | 0.56 | 3.89 | 5.69 | -5.02
O=C(Nc1ccccc1)C1(C(=O)Nc2cccc(-c3c[nH]c4ncnc(N5CCOCC5)c34)c2)CC1 [Compound 12] | 6.15 | 3.58 | 5.87 | 1.90 | 2.09 | 3.53 | 0.16 | 0.69 | 4.89 | 2.45 | -0.82
O=C(Nc1ccc(Cl)cc1)C1(C(=O)Nc2cccc(-c3c[nH]c4ncnc(N5CCOCC5)c34)c2)CC1 [Compound 13] | 9.27 | 4.95 | 7.55 | 3.82 | 2.32 | 8.33 | 0.45 | 2.20 | 7.72 | 3.61 | 1.29
Cc1ccc(NC(=O)C2(C(=O)Nc3cccc(-c4c[nH]c5ncnc(N6CCOCC6)c45)c3)CC2)cc1 [Compound 14] | 6.23 | 4.56 | 4.34 | 2.44 | 1.16 | 7.03 | 0.32 | 0.91 | 4.90 | -1.31 | 0.34
CCc1ccc(NC(=O)C2(C(=O)Nc3cccc(-c4c[nH]c5ncnc(N6CCOCC6)c45)c3)CC2)cc1 [Compound 15] | 4.76 | 2.23 | 5.12 | 1.40 | 1.18 | 9.83 | -0.80 | 1.12 | 6.20 | -0.66 | 1.78
Cc1ccc(-n2nc(C(C)(C)C)cc2NC(=O)Nc2cccc(-c3c[nH]c4ncnc(N5CCOCC5)c34)c2)cc1 [Compound 29] | 9.71 | 6.78 |  | 3.58 | 6.45 | 12.74 | 0.14 | -0.55 | 2.95 | 3.60 | -10.70
Cc1ccc(-n2nc(C(C)(C)C)cc2NC(=O)Nc2cccc(-c3c[nH]c4nc(Cl)nc(N5CCOCC5)c34)c2)cc1 [Compound 30] | 3.48 | 0.96 |  | 0.76 | 1.34 | 1.78 | -0.99 | -1.13 | -0.48 | -0.06 | -4.89
CC(=O)N1CCN(c2nc(Cl)nc3[nH]cc(-c4cccc(NC(=O)Nc5cc(C(C)(C)C)nn5-c5ccc(C)cc5)c4)c23)CC1 [Compound 31] | 6.61 | 3.03 |  | 0.00835 | 1.08 | 2.43 | -0.49 | -1.18 | -0.26 | 0.82 | -2.02
COc1cc(C(=O)N2CCOCC2)c(F)cc1Nc1nc(N(C)C)c2c(Cl)c[nH]c2n1 [Compound 36] | 5.31 | -3.75 |  | -1.33 | 2.35 | -0.66 | 0.29 | -1.69 | -1.24 | 5.50 | 1.23
COc1cc(S(C)(=O)=O)ccc1Nc1nc(N(C)C)c2c(Cl)c[nH]c2n1 [Compound 37] | 1.57 | -2.45 |  | -0.88 | 3.58 | -0.37 | -0.25 | -0.55 | 0.75 | 2.71 | 1.43
Cc1ccc(C(=O)Nc2ccc(CN3CCN(C)CC3)c(C(F)(F)F)c2)cc1C#Cc1cnc2cccnn12 [Ponatinib, reference compound] |  |  |  |  |  | 4.72 |  |  |  |  | -0.60
CNC(=O)c1cc(Oc2ccc(NC(=O)Nc3cc(C(C)(C)C)nn3-c3ccc4ncccc4c3)c(F)c2)ccn1 [Rebastinib, reference compound] | 6.14 |  | 11.89 | 1.98 | 1.13 | 9.06 | -0.41 | 0.52 | 0.56 | 3.02 | -2.54
CN[C@@H]1C[C@H]2O[C@@](C)([C@@H]1OC)n1c3ccccc3c3c4c(c5c6ccccc6n2c5c31)C(=O)NC4 [Staurosporine] |  |  |  | 7.21 | 9.01 |  |  |  |  |  | 0.52
